SMILES strings stand for the structures.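 Where inhibition never reached the appropriate level, the endpoint shown equals the highest concentration tested. Otherwise, values were interpolated linearly from a five-concentration, 48-hour dose response in 96-well plates. The concentration for 50% growth inhibition is given as GI50. Definition used: TGI = concentration required for complete inhibition of growth.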 Bounds are passed on as bounds.

Test systems include M14 melanoma; OVCAR-5 ovarian; HS 578T breast; RPMI-8226 leukemia; HOP-92 NSCLC; SNB-75 CNS; EKVX NSCLC; SK-MEL-2 melanoma.
Common to all, as to test: NCI tumour cell line growth inhibition, 48 h

On to `C/C=C(\C)C(=O)O[C@@H]1C(O)[C@H]2OC(COC(=O)CCC(=O)CCCCCC[C@H](CCCCC)O[C@@H]3OC(C)[C@H](OC(C)=O)C(O)[C@H]3O2)[C@H]1OC(=O)/C=C/c1ccccc1` (some centres not stated), for which the GI50 was below 0.01 µM in the assay with M14 melanoma; 2.16 µM in the assay on OVCAR-5 ovarian; below 0.01 µM in the assay with HS 578T breast; below 0.01 µM in the assay with RPMI-8226 leukemia; below 0.01 µM in the assay with HOP-92 NSCLC; below 0.01 µM in the assay on SNB-75 CNS. Moreover, the GI50 in the assay with EKVX NSCLC was below 0.0267 µM; in the assay on SK-MEL-2 melanoma, 0.322 µM. The TGI is 0.123 µM in the assay on M14 melanoma; above 64.2 µM with OVCAR-5 ovarian; 23.3 µM with HS 578T breast; 9.35 µM in the assay with RPMI-8226 leukemia; 0.415 µM in the assay with HOP-92 NSCLC; 0.747 µM in the assay on SNB-75 CNS. The TGI in the assay with EKVX NSCLC was above 87.9 µM; with SK-MEL-2 melanoma, 4.27 µM.

As to `CCCCn1c2c(c3ccccc3c1=O)C(=O)c1ccccc1-2`, the TGI in the assay with M14 melanoma, with OVCAR-5 ovarian, in the assay with HS 578T breast, in the assay on RPMI-8226 leukemia, with HOP-92 NSCLC and with SNB-75 CNS was above 100 µM each time. In addition, the TGI in the assay on EKVX NSCLC and in the assay with SK-MEL-2 melanoma was above 100 µM in each case.

With `Cc1cc(=O)oc2cc(OC(=O)Nc3ccc(Cl)c(Cl)c3)ccc12`, the TGI in the assay with M14 melanoma stood at 50.9 µM; in the assay with OVCAR-5 ovarian it was 61.9 µM; with HS 578T breast, 66.4 µM; in the assay with RPMI-8226 leukemia, 36.2 µM; in the assay on HOP-92 NSCLC, 43.4 µM; in the assay with SNB-75 CNS it was 67.3 µM. Also, the TGI with EKVX NSCLC was determined as 85.2 µM; in the assay with SK-MEL-2 melanoma it was 56.1 µM.

Turning to `C=C1C(=O)O[C@H]2[C@H]1CC/C(COC(=O)C(=O)c1c[nH]c3ccc(OC)cc13)=C\CC[C@@]1(C)O[C@@H]21`, the GI50 was 5.18 µM with M14 melanoma; 7.11 µM in the assay with OVCAR-5 ovarian; 10.1 µM with HS 578T breast; 2.21 µM in the assay with RPMI-8226 leukemia; 1.74 µM in the assay on HOP-92 NSCLC; 6.13 µM in the assay with SNB-75 CNS. The GI50 in the assay on EKVX NSCLC is 9.85 µM. Further, the TGI with M14 melanoma was found to be 10.4 µM; with OVCAR-5 ovarian, 14.1 µM; in the assay with HS 578T breast, 40.2 µM; with RPMI-8226 leukemia, 10.5 µM; with HOP-92 NSCLC, 3.85 µM; in the assay on SNB-75 CNS it was 10.4 µM. For the same compound, the results for the TGI in the assay on EKVX NSCLC and with SK-MEL-2 melanoma were 24.7 µM and above 20.4 µM, respectively.

On to `COc1c2ccccc2c(O)c2c(=O)c(C(=O)O)cn(C)c12`, for which the GI50 with M14 melanoma is above 100 µM; with OVCAR-5 ovarian it was above 100 µM; in the assay with HS 578T breast, above 100 µM; in the assay on RPMI-8226 leukemia it was above 100 µM; with HOP-92 NSCLC it was 56.9 µM; in the assay with SNB-75 CNS it was above 100 µM. The GI50 is 85.2 µM with EKVX NSCLC and above 100 µM in the assay with SK-MEL-2 melanoma. Besides, the TGI in the assay with M14 melanoma, in the assay with OVCAR-5 ovarian, in the assay on HS 578T breast, in the assay with RPMI-8226 leukemia, in the assay on HOP-92 NSCLC and in the assay with SNB-75 CNS was above 100 µM each time. For the same compound, the TGI in the assay on EKVX NSCLC and in the assay with SK-MEL-2 melanoma was above 100 µM throughout.

For `O=C(Oc1ccc([N+](=O)[O-])cc1)N1CCN(Cc2cccc(Oc3ccccc3)c2)CC1`, the GI50 was above 100 µM with M14 melanoma; above 100 µM in the assay on OVCAR-5 ovarian; above 100 µM in the assay on HS 578T breast; 13.1 µM in the assay on RPMI-8226 leukemia; 18.2 µM with HOP-92 NSCLC; above 100 µM with SNB-75 CNS. The GI50 with EKVX NSCLC is 48.6 µM; in the assay with SK-MEL-2 melanoma, above 67.1 µM. The TGI with M14 melanoma, in the assay on OVCAR-5 ovarian, with HS 578T breast, in the assay on RPMI-8226 leukemia, in the assay on HOP-92 NSCLC and with SNB-75 CNS was above 100 µM in each case. Further, the TGI with EKVX NSCLC and in the assay on SK-MEL-2 melanoma was above 100 µM throughout.

For the compound `COc1cc2c3c(n(CCN)c(=O)c2cc1OC)-c1cc2c(cc1C3=O)OCO2`, the GI50 is below 0.0185 µM in the assay with M14 melanoma; 1.95 µM with OVCAR-5 ovarian; 1.85 µM in the assay with HS 578T breast; below 0.0159 µM in the assay with RPMI-8226 leukemia; 0.82 µM with HOP-92 NSCLC; 0.143 µM in the assay on SNB-75 CNS. Further, the GI50 was 1.59 µM in the assay with EKVX NSCLC and 3.22 µM in the assay with SK-MEL-2 melanoma. In addition, the TGI with M14 melanoma was 1.41 µM; with OVCAR-5 ovarian, 3.74 µM; in the assay with HS 578T breast, 4.51 µM; in the assay on RPMI-8226 leukemia, 0.303 µM; in the assay with HOP-92 NSCLC, 2.62 µM; in the assay on SNB-75 CNS it was 2.43 µM. Besides, the TGI in the assay on EKVX NSCLC was determined as 3.97 µM; in the assay with SK-MEL-2 melanoma, 10.5 µM.

On to `CN(C)CCNC(=O)c1cccc2cc3ccccc3nc12`, for which the GI50 in the assay on M14 melanoma was 1.43 µM; with OVCAR-5 ovarian it was 2.27 µM; in the assay with HS 578T breast, 1.6 µM; in the assay on RPMI-8226 leukemia, 1.89 µM; with HOP-92 NSCLC, 1.24 µM; in the assay with SNB-75 CNS, 2.01 µM. Further, the GI50 with EKVX NSCLC was 2.25 µM; with SK-MEL-2 melanoma, 2.27 µM. Besides, the TGI in the assay on M14 melanoma was 3.29 µM; in the assay on OVCAR-5 ovarian, above 24.3 µM; with HS 578T breast, 10.2 µM; in the assay on RPMI-8226 leukemia it was above 25.2 µM; with HOP-92 NSCLC, 5.41 µM; with SNB-75 CNS, 6.22 µM. The TGI with EKVX NSCLC turned out to be 7.81 µM; in the assay on SK-MEL-2 melanoma it was 4.34 µM.

Consider `Cn1ccc(=Nc2ccc(NC(=O)c3ccc(N=c4ccn(C)c5ccc([N+](=O)[O-])cc45)cc3)cc2)cc1`, for which the GI50 in the assay with M14 melanoma is above 100 µM; with OVCAR-5 ovarian, above 100 µM; in the assay with HS 578T breast, 16.4 µM; in the assay with RPMI-8226 leukemia, 3.54 µM; in the assay with HOP-92 NSCLC it was 42.4 µM; in the assay with SNB-75 CNS, 3.63 µM. In addition, the GI50 in the assay with EKVX NSCLC is 55.1 µM; in the assay on SK-MEL-2 melanoma it was 79.1 µM. The TGI was above 100 µM with M14 melanoma; above 100 µM with OVCAR-5 ovarian; 92.6 µM in the assay on HS 578T breast; above 100 µM in the assay with RPMI-8226 leukemia; above 100 µM with HOP-92 NSCLC; 28.5 µM in the assay on SNB-75 CNS. For the same compound, the TGI with EKVX NSCLC and in the assay on SK-MEL-2 melanoma was above 100 µM in each case.

(Values after PubChem BioAssay (NCI).)
